Test results taken from publication PMC7465109, “Discovery of Sulfated Small Molecule Inhibitors of Matrix Metalloproteinase-8” (Biomolecules, 2020).

Columns and labels:
MMP-9 = molecular target: T1, MMP-9 (Homo sapiens, UniProt P14780); assay: MMP-9 inhibitor screening assay kit (Abcam #ab139448); format: biochemical; conditions: NSGM 100 µM; read-out: MMP-9 inhibition in screen
T1 construct: purchased Abcam (Cambridge, UK) ab139448
Experimental: Screening of sulfated benzofurans and quinazolinones (100 µM, final) against MMP-9 was performed using a commercially available assay kit (Abcam catalog #ab139448) following manufacturer’s protocol. All experiments were performed at least twice in duplicates.

MMP-8 = molecular target: T2, MMP-8 (Homo sapiens, UniProt P22894); assay: Direct inhibition of MMP-8, fluorogenic substrate hydrolysis assay; format: biochemical; conditions: for IC50 / ΔY (efficacy of MMP-8 inhibition): Tris-buffered saline, 10 mM CaCl2, 1 µM ZnCl2, pH 7.5, 37 °C; for IC50: error ± 1 SD, read-out: IC50 (potency of MMP-8 inhibition); for ΔY (efficacy of MMP-8 inhibition): from dose-response regression
T2 construct: purchased R&D Systems (Minneapolis, MN, USA)
T2 sequence (P22894 101-467): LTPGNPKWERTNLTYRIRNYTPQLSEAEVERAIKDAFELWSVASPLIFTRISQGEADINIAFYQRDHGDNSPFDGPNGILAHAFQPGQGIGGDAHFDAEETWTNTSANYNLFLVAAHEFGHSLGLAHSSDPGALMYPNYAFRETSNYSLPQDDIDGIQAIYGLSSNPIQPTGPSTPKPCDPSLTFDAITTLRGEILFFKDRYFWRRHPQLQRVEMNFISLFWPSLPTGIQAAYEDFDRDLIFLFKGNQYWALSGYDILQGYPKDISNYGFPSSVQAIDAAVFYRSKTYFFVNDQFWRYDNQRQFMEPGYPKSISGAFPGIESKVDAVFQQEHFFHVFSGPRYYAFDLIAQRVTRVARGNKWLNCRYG
Experimental: NSGMs were screened for the inhibition of MMP-8 using a fluorogenic substrate assay, as described earlier. Briefly, 100 µg/mL pro-MMP-8 was activated by incubating with 1mM p-aminomercuric acetate at 37 °C for 1 hr. Activated MMP-8 (10 nM, final) was then incubated with NSGMs (100 µM, final) in Tris-buffered saline containing 10 mM CaCl2,1 µM ZnCl2, pH 7.5 for 10 min at 37 °C. Residual MMP-8 activity was measured by adding the fluorogenic substrate (DNP-Pro-Leu-Ala- Tyr-Trp-Ala-Arg, 20 µM, final) and monitoring initial linear rate of increase in fluorescence. IC50s were calculated using the following equation, Y=Y0+YM−Y0/1+10^(log[I]0−logIC50)×HS . Y is the ratio of residual enzyme activity in the presence of NSGM to that in its absence, Y0 and YM are the minimal and maximal values of Y, respectively, obtained following regression, and HS is the Hill slope of inhibition.

[1] = NSGM 100 µM, MMP-8 10 nM, pH 7.5, 37 °C

T1 sequence (P14780 107-444 limits assumed): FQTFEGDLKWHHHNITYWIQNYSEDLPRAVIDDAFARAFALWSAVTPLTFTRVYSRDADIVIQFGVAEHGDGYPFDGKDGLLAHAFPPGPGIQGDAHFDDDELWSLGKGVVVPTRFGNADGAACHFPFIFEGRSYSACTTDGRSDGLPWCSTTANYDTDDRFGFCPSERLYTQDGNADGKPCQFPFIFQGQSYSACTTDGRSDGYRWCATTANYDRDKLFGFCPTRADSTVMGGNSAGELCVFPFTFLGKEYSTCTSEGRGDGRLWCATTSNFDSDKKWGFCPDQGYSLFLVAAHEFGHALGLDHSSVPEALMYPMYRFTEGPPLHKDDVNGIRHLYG

SMILES	inhibition at 100 µM (MMP-9)	MMP-8 inhibition in library screen (result in words) (MMP-8; [1])	MMP-8 inhibition in library screen (MMP-8; [1])	IC50 (MMP-8)	ΔY (efficacy of MMP-8 inhibition) (MMP-8)
CCOC(=O)c1c(C)oc2cc(OCC3CCCCC3)c(OCc3oc4cc(OCC5CCCCC5)c(OS(=O)(=O)O)cc4c3C(=O)OCC)cc12 [NSGM 29]	> 80%	did not inhibit MMP-8			
O=c1c2ccccc2nc(-c2ccc(OS(=O)(=O)O)cc2)n1CCCCCCCCCCCCn1cc(Cn2c(-c3ccc(OS(=O)(=O)O)cc3)nc3ccccc3c2=O)nn1 [NSGM 42]			> 80%	34 ± 4 µM	98 ± 8%
O=c1c2ccccc2nc(-c2ccc(OS(=O)(=O)O)cc2)n1CCCCCCCCCCn1cc(Cn2c(-c3ccc(OS(=O)(=O)O)cc3)nc3ccccc3c2=O)nn1 [NSGM 41]			> 80%	15 ± 1 µM	97 ± 2%
O=c1c2ccccc2nc(-c2ccc(OS(=O)(=O)O)cc2)n1CCCCCCCCCn1cc(Cn2c(-c3ccc(OS(=O)(=O)O)cc3)nc3ccccc3c2=O)nn1 [NSGM 40]			> 80%	25 ± 1 µM	100 ± 2%
